Literature values as cited in US7405313B2, “Method for the synthesis of basic chromium carboxylates” (The Board of Trustees of the University of Alabama, priority 2006, dated 2008).

Legend:
[1] = compared to other chromium-containing nutritional supplements
[2] = test system: healthy and model type 2 diabetic rats
colorectal cancer = settings: rat
rats on regular diets = settings: for effect on body mass, percentage lean or fat content, tissue size, or blood variables (fasting glucose, insulin, cholesterol, etc.): rats on regular diets
[3] = healthy and model type 2 diabetic rats

Row | Compound | dissolution in water | absorption [1] | glycated hemoglobin ([2]; diabetes models) | blood plasma cholesterol and triglycerides levels [2, 3] | insulin sensitivity [2, 3] | onset of colorectal cancer (colorectal cancer) | effect on body mass, percentage lean or fat content, tissue size, or blood variables (fasting glucose, insulin, cholesterol, etc.) (rats on regular diets) | acute toxic effects (rats on regular diets; rats, amounts up to 1500 μg/kg diet for up to 24 weeks)
1 | CCC(=O)[O-].CCC(=O)[O-].CCC(=O)[O-].CCC(=O)[O-].CCC(=O)[O-].CCC(=O)[O-].O.O.O.[Cr+3].[Cr+3].[Cr+3].[O-2] [Complex 1, [Cr3O(O2CCH2CH3)6(H2O)3]^+] | dissolves in water very rapidly | absorbed very rapidly and very efficiently | reduce glycated hemoglobin | improve blood plasma cholesterol and triglycerides levels | increase insulin sensitivity | reduce the onset of colorectal cancer |  | 
2 | [Cl][Cr]([Cl])[Cl] [chromium chloride] |  |  |  |  |  |  | no effect | 
3 | chromium(III) tris(picolinate) [Cr(pic)3] |  |  |  |  |  |  | no effect | no acute toxic effects
